From patent US4229436A, “Antibiotic G-6302” (Takeda Chemical Industries, Ltd., priority 1977, dated 1980)
Values after ≈ are worked out from the molar mass of the structure shown.

Columns and labels:
[1] = Stability in aqueous solution; format: physicochemical
[2] = Basicity, neutrality or acidity; format: physicochemical
gram-negative bacteria = experiment: Antimicrobial spectrum, summary in words; format: cell-based; details: summary of Table 3
Text: (§1) The biological characteristics of G-6302 are as follows. The antimicrobial spectra of G-6302 and its sodium salt against various microorganisms are shown in Table 3 (agar plate dilution method.)

gram-positive bacteria = experiment: Antimicrobial spectrum, summary in words; format: cell-based; details: summary of Table 3
Text: as §1

Escherichia coli = experiment: Protection of mice infected with Escherichia coli; format: in vivo
Klebsiella pneumoniae = experiment: Protection of mice infected with Klebsiella pneumoniae; format: in vivo
[3] = tested on: Aspergillus niger IFO 4066; experiment: Antimicrobial spectrum, agar plate dilution method; format: cell-based; details: IFO4066, Nutrient agar containing 1% of glucose, read-out: Minimal inhibitory concentration
Text: as §1
(§2) *Medium = Nutrient agar containing 1% of glucose

[4] = tested on: Candida albicans IFO 0583; experiment: Antimicrobial spectrum, agar plate dilution method; format: cell-based; details: IFO0583, Nutrient agar containing 1% of glucose, read-out: Minimal inhibitory concentration
Text: as §1, §2

[5] = tested on: Saccharomyces cerevisiae IFO 0209; experiment: Antimicrobial spectrum, agar plate dilution method; format: cell-based; details: IFO0209, Nutrient agar containing 1% of glucose, read-out: Minimal inhibitory concentration
Text: as §1, §2

[6] = tested on: Penicillium chrysogenum IFO 4626; experiment: Antimicrobial spectrum, agar plate dilution method; format: cell-based; details: IFO4626, Nutrient agar containing 1% of glucose, read-out: Minimal inhibitory concentration
Text: as §1, §2

[7] = tested on: Bacillus subtilis PCI 219; experiment: Antimicrobial spectrum, agar plate dilution method; format: cell-based; details: PCI219, Trypticasesoy-broth-agar, read-out: Minimal inhibitory concentration
Text: as §1
(§3) Medium = Trypticasesoy-broth-agar

[8] = tested on: Serratia marcescens IFO 12648; experiment: Antimicrobial spectrum, agar plate dilution method; format: cell-based; details: IFO12648, Trypticasesoy-broth-agar, read-out: Minimal inhibitory concentration
Text: as §1, §3

[9] = tested on: Streptococcus pyogenes E-14; experiment: Antimicrobial spectrum, agar plate dilution method; format: cell-based; details: E14, Trypticasesoy-broth-agar, read-out: Minimal inhibitory concentration
Text: as §1, §3

[10] = tested on: Proteus morganii IFO 3168; experiment: Antimicrobial spectrum, agar plate dilution method; format: cell-based; details: Morganella morganii, IFO3168, Trypticasesoy-broth-agar, read-out: Minimal inhibitory concentration
Text: as §1, §3

[11] = tested on: Staphylococcus aureus FDA 209P; experiment: Antimicrobial spectrum, agar plate dilution method; format: cell-based; details: FDA209P, Trypticasesoy-broth-agar, read-out: Minimal inhibitory concentration
Text: as §1, §3

Shigella flexneri EW-10 = experiment: Antimicrobial spectrum, agar plate dilution method; format: cell-based; details: EW10, Trypticasesoy-broth-agar, read-out: Minimal inhibitory concentration
Text: as §1, §3

[12] = tested on: Pseudomonas aeruginosa U-31; experiment: Antimicrobial spectrum, agar plate dilution method; format: cell-based; details: U31, Trypticasesoy-broth-agar, read-out: Minimal inhibitory concentration
Text: as §1, §3

[13] = tested on: Proteus vulgaris IFO 3988; experiment: Antimicrobial spectrum, agar plate dilution method; format: cell-based; details: IFO3988, Trypticasesoy-broth-agar, read-out: Minimal inhibitory concentration
Text: as §1, §3

[14] = tested on: Corynebacterium diphtheriae Toronto; experiment: Antimicrobial spectrum, agar plate dilution method; format: cell-based; details: Trypticasesoy-broth-agar, read-out: Minimal inhibitory concentration
Text: as §1, §3

Escherichia coli NIHJ = experiment: Antimicrobial spectrum, agar plate dilution method; format: cell-based; details: Trypticasesoy-broth-agar, read-out: Minimal inhibitory concentration
Text: as §1, §3

Klebsiella pneumoniae DT = experiment: Antimicrobial spectrum, agar plate dilution method; format: cell-based; details: Trypticasesoy-broth-agar, read-out: Minimal inhibitory concentration
Text: as §1, §3

Escherichia coli T-7 = experiment: Antimicrobial spectrum, agar plate dilution method; format: cell-based; details: T7, Trypticasesoy-broth-agar, read-out: Minimal inhibitory concentration
Text: as §1, §3

[15] = tested on: Proteus mirabilis IFO 3849; experiment: Antimicrobial spectrum, agar plate dilution method; format: cell-based; details: IFO3849, Trypticasesoy-broth-agar, read-out: Minimal inhibitory concentration
Text: as §1, §3

Solubility in solvents = format: physicochemical
[16] = mouse, in vivo
[17] = tested on: Salmonella typhosa Boxhill 58; experiment: Antimicrobial spectrum, agar plate dilution method; format: cell-based; details: Salmonella enterica, read-out: Minimal inhibitory concentration
Text: as §1, §3

[18] = Acute toxicity in mice, intravenous
[19] = listed as sodium salt of G-6302

COC1(NC(=O)C(C)NC(=O)CCC(N)C(=O)O)CN(S(=O)(=O)O)C1=O (stereo not drawn) [Antibiotic G-6302]
Stability over pH 8.5 ([1]; over pH 8.5): unstable
Stability in aqueous solution ([1]; pH 3-pH 7, 60° C., 10 minutes): Stable
Basicity, neutrality or acidity [2]: Acid
antimicrobial activity against gram-negative bacteria (gram-negative bacteria): inhibitory
antimicrobial activity against gram-negative bacteria (gram-negative bacteria; listed as Antibiotic G-6302): mainly active against gram-negative bacteria
antimicrobial activity against gram-positive bacteria (gram-positive bacteria): inhibitory
antimicrobial activity against gram-positive bacteria (gram-positive bacteria; listed as Antibiotic G-6302): also active against some gram-positive bacteria
protecting action on infected mice (Escherichia coli; oral dose of 100 mg/kg): protecting action
protecting action on infected mice (Escherichia coli; subcutaneous dose of 10 mg/kg): protecting action
protecting action on infected mice (Klebsiella pneumoniae; oral dose of 100 mg/kg): protecting action
protecting action on infected mice (Klebsiella pneumoniae; subcutaneous dose of 10 mg/kg): protecting action
MIC [3]: > 100 µg/mL
MIC [4]: > 100 µg/mL
MIC [5]: > 100 µg/mL
MIC [6]: > 100 µg/mL
MIC [7]: 100 µg/mL (≈ 252 µM)
MIC [8]: 100 µg/mL (≈ 252 µM)
MIC [9]: > 100 µg/mL
MIC [10]: 100 µg/mL (≈ 252 µM)
MIC [11]: > 100 µg/mL
MIC (Shigella flexneri EW-10): 25 µg/mL (≈ 63.1 µM)
MIC [12]: > 100 µg/mL
MIC [13]: 100 µg/mL (≈ 252 µM)
MIC [14]: 12.5 µg/mL (≈ 31.5 µM)
MIC (Escherichia coli NIHJ): 25 µg/mL (≈ 63.1 µM)
MIC (Klebsiella pneumoniae DT): 12.5 µg/mL (≈ 31.5 µM)
MIC (Escherichia coli T-7): 25 µg/mL (≈ 63.1 µM)
MIC [15]: 25 µg/mL (≈ 63.1 µM)
Solubility in acetone (Solubility in solvents): sparingly soluble
Solubility in benzene (Solubility in solvents; benzene): Insoluble
Solubility in chloroform (Solubility in solvents; chloroform): Insoluble
Solubility in diethyl ether (Solubility in solvents; diethyl ether): Insoluble
Solubility in dimethylsulfoxide (Solubility in solvents; dimethylsulfoxide): soluble
Solubility in ethanol (Solubility in solvents; ethanol): sparingly soluble
Solubility in ethyl acetate (Solubility in solvents; ethyl acetate): Insoluble
Solubility in hexane (Solubility in solvents; hexane): Insoluble
Solubility in methanol (Solubility in solvents): soluble
Solubility in petroleum ether (Solubility in solvents; petroleum ether): Insoluble
Solubility in pyridine (Solubility in solvents; pyridine): sparingly soluble
Solubility in water (Solubility in solvents; water): readily soluble

COC1(NC(=O)C(C)NC(=O)CCC(N)C(=O)O)CN(S(=O)(=O)O)C1=O (stereo not drawn) [crystals of G-6302]
stability (compared with product of Example 1) ([1]; crystals of Example 5): the same as those of the product obtained in Example 1
basicity, neutrality or acidity (compared with product of Example 1) ([2]; crystals of Example 5): the same as those of the product obtained in Example 1
solubility in solvents (compared with product of Example 1) (Solubility in solvents; crystals of Example 5): the same as those of the product obtained in Example 1

COC1(NC(=O)C(C)NC(=O)CCC(N)C(=O)O)CN(S(=O)(=O)O)C1=O (stereo not drawn) [G-6302 . Na]
deaths [16]: no deaths
MIC [17]: 12.5 µg/mL (≈ 31.5 µM)
Solubility in acetone (Solubility in solvents; [19]): Insoluble
Solubility in methanol (Solubility in solvents; [19]): sparingly soluble
acute toxicity [18]: low
